Assay results taken from paper PMC13298843, “Substituent size versus metal binding of inhibitors with variants of influenza endonuclease^” (Journal of inorganic biochemistry, 2025).

Tests used:
Assay type in all cases: binding, influenza A/California/04/2009(H1N1)
Details in all cases: 200 µM
[1] = molecular target: E23K mutant PAN endonuclease (Influenza A virus, UniProt C3W5S0, DEL52-64/E23K/INS51G, form not given)
[2] = molecular target: I38T mutant PAN endonuclease (Influenza A virus, UniProt C3W5S0, DEL52-64/I38T/INS51G, form not given)
WT PAN endonuclease = WT PAN endonuclease (Influenza A virus, UniProt C3W5S0, DEL52-64/INS51G, form not given)

CSc1ccccc1-c1cc(=O)c(O)c(C(=O)O)[nH]1 [Compound 3]
E23K ΔTm (thermal shift) [1]: 7.21 ± 0.15 °C | I38T ΔTm (thermal shift) [2]: 10.86 ± 0.12 °C | WT ΔTm (thermal shift) (WT PAN endonuclease): 10.89 ± 0.12 °C
